Results published in patent US11584765B2 (priority 2017, dated 2023).

Tested on: C57BL/6 mice
Test: animal or person
Format: in vivo
Details: Mus musculus, sc, 0.5 h, s.c. administration, 30 min, 55° C. water, read-out: ED50 (mg/kg) at 30 min on C57BL/6 mice in Warm-water Tail-flick Test

Q: For `CC(=O)Nc1ccc(CN2CCC(CCc3ccccc3)(C3OC3C)CC2)cc1` (centres unmarked) [Compound 118, N-(4-((4-(3-methyloxiran-2-yl)-4-phenethylpiperidin-1-yl)methyl)phenyl)acetamide], which ED50 is on record?
A: > 10 mg/kg

Q: For `CCNc1ccc(CN2CCC(CCc3ccccc3)(CNC)CC2)cc1` [Compound 119, N-ethyl-4-((4-((methylamino)methyl)-4-phenethylpiperidin-1-yl)methyl)aniline], which ED50 is on record?
A: > 10 mg/kg

Q: Which ED50 does the source give for `CC(=O)Nc1ccc(CN2CCC(CCc3ccccc3)(C3CCO3)C2)cc1` (centres unmarked) [Compound 120, N-(4-((3-(oxetan-2-yl)-3-phenethylpyrrolidin-1-yl)methyl)phenyl)acetamide] here?
A: < 10 mg/kg

Q: For `CCOCC1(CCc2ccccc2)CCN(CC2CCC(NC(C)=O)CC2)CC1.Cl` (centres unmarked) [Compound 121, N-(4-((4-(ethoxymethyl)-4-phenethylpiperidin-1-yl)methyl)cyclo-hexyl)acetamide HCl], which ED50 is on record?
A: > 10 mg/kg

Q: Which ED50 does the source give for `CCOCC1(OCc2ccccc2)CCN(Cc2ccc(NC(C)=O)cc2)CC1` [Compound 122, N-(4-((4-(benzyloxy)-4-(ethoxymethyl)piperidin-1-yl)methyl)phenyl)acetamide] here?
A: > 10 mg/kg

Q: `CC(=O)Nc1ccc(CN2CCC(CCc3ccccc3)(COc3ccccn3)CC2)cc1` [Compound 123, N-(4-((4-phenethyl-4-((pyridin-2-yloxy)methyl)piperidin-1-yl)methyl)phenyl)acetamide] was tested. Which ED50 did it give?
A: > 10 mg/kg

Q: `CC(=O)Nc1ccc(CN2CCC(CCc3ccccc3)(Oc3ccccn3)CC2)cc1` [Compound 124, N-(4-((4-phenethyl-4-(pyridin-2-yloxy)piperidin-1-yl)methyl)phenyl)acetamide] was tested. Which ED50 did it give?
A: > 10 mg/kg

Q: Which ED50 does the source give for `CCOCC1(CCc2ccccc2)CCN(c2ccc(NC(C)=O)cc2)CC1` [Compound 125, N-(4-(4-(ethoxymethyl)-4-phenethylpiperidin-1-yl)phenyl)acetamide] here?
A: > 10 mg/kg

Q: With `CCOCC1(CCc2ccccc2)CCN(CCc2ccc(NC(C)=O)cc2)CC1` [Compound 126, N-(4-(2-(4-(ethoxymethyl)-4-phenethylpiperidin-1-yl)ethyl)phenyl)acetamide] as the molecule, how does the ED50 read?
A: > 10 mg/kg

Q: For `CCOCC1(CCc2ccccc2)CCN(c2ccc(N(C)C)cc2)CC1` [Compound 127, 4-(4-(ethoxymethyl)-4-phenethylpiperidin-1-yl)-N,N-dimethylaniline], which ED50 is on record?
A: > 10 mg/kg

Q: How did the ED50 turn out when `CCOCC1(CCc2ccccc2)CCN(Cc2ccc(CCOC)cc2)CC1` [Compound 128, 4-(ethoxymethyl)-1-(4-(2-methoxyethyl)benzyl)-4-phenethylpiperidine] was run?
A: > 10 mg/kg

Q: How did the ED50 turn out when `CCOCC1(CCc2ccccc2)CCN(Cc2ccc(COC)cc2)CC1` [Compound 129, 4-(ethoxymethyl)-1-(4-(methoxymethyl)benzyl)-4-phenethylpiperidine HC] was run?
A: > 10 mg/kg

Q: With `CCOCC1(CCc2ccccc2)CCN(Cc2cc(C)c(NC(C)=O)c(C)c2)CC1` [Compound 130] as the molecule, how does the ED50 read?
A: > 10 mg/kg

Q: For `CCOCC1(CCc2ccccc2)CCN(Cc2ccc(CC(C)=O)cc2)CC1` [Compound 131, 1-(4-((4-(ethoxymethyl)-4-phenethylpiperidin-1-yl)methyl)phenyl)propan-2-one], which ED50 is on record?
A: > 10 mg/kg

Q: `CCOCC1(COCc2ccccc2)CCN(Cc2ccc(NC(C)=O)cc2)CC1.Cl` [Compound 132, N-(4-((4-(benzyloxymethyl)-4-(ethoxymethyl)piperidin-1-yl)methyl)phenyl)acetamide HCl] was tested. Which ED50 did it give?
A: > 10 mg/kg

Q: How did the ED50 turn out when `CCOC(=O)C1(CCc2ccccc2)CCCN(Cc2ccc(NC(C)=O)cc2)CC1` (centres unmarked) [Compound 133, ethyl 1-(4-acetamidobenzyl)-4-phenethylazepane-4-carboxylate] was run?
A: > 10 mg/kg

Q: For `CCOCC1(CCc2ccccc2)CCN(Cc2ccc(-c3nccs3)cc2)CC1` [Compound 134, 2-(4-((4-(ethoxymethyl)-4-phenethylpiperidin-1-yl)methyl)phenyl)thiazole], which ED50 is on record?
A: > 10 mg/kg

Q: For `CCOCC1(CCc2ccccc2)CCN(Cc2ccc(-c3nc(C)no3)cc2)CC1.Cl` [Compound 135, 5-(4-((4-(ethoxymethyl)-4-phenethylpiperidin-1-yl)methyl)pheny)-3-methyl-1,2,4-oxadiazole HCl], which ED50 is on record?
A: > 10 mg/kg

Q: `CCOCC1(CCc2ccccc2)CCN(Cc2ccc(-c3ncon3)cc2)CC1.Cl` [Compound 136, 3-(4-((4-(ethoxymethyl)-4-phenethylpiperidin-1-yl)methyl)phenyl)-1,2,4-oxadiazole HCl] was tested. Which ED50 did it give?
A: > 10 mg/kg

Q: Which ED50 does the source give for `CCOCC1(CCc2ccccc2)CCN(Cc2ccc(-c3nnco3)cc2)CC1` [Compound 137, 2-(4-((4-(ethoxymethyl)-4-phenethylpiperidin-1-yl)methyl)phenyl)-1,3,4-oxadiazole] here?
A: > 10 mg/kg

Q: For `CCOCC1(CCc2ccccc2)CCN(Cc2ccc(-c3nncs3)cc2)CC1` [Compound 138, 2-(4-((4-(ethoxymethyl)-4-phenethylpiperidin-1-yl)methyl)phenyl)-1,3,4-thiadiazole], which ED50 is on record?
A: > 10 mg/kg

Q: For `CCOCC1(CCc2ccccc2)CCN(Cc2ccc(-c3cncs3)cc2)CC1` [Compound 139, 5-(4-((4-(ethoxymethyl)-4-phenethylpiperidin-1-yl)methyl)phenyl)thiazole], which ED50 is on record?
A: > 10 mg/kg

Q: With `CCOCC1(CCc2ccccc2)CCN(Cc2ccc(-c3ncc[nH]3)cc2)CC1` [Compound 140, 1-(4-(1H-imidazol-2-yl)benzyl)-4-(ethoxymethyl)-4-phenethylpiperidine] as the molecule, how does the ED50 read?
A: > 10 mg/kg

Q: How did the ED50 turn out when `CCOCC1(CCc2ccccc2)CCN(Cc2ccc(-c3cnc[nH]3)cc2)CC1` [Compound 141, 1-(4-(1H-imidazol-5-yl)benzyl)-4-(ethoxymethyl)-4-phenethylpiperidine] was run?
A: > 10 mg/kg

Q: For `CCOCC1(CCc2ccccc2)CCN(Cc2ccc(CC(=O)O)cc2)CC1` [Compound 142, 2-(4-((4-(ethoxymethyl)-4-phenethylpiperidin-1-yl)methyl)phenyl)acetic acid], which ED50 is on record?
A: > 10 mg/kg

Q: Which ED50 does the source give for `CCOCC1(CCc2ccccc2)CCN(Cc2ccc(CC(=O)N(C)OC)cc2)CC1` [Compound 143, 2-(4-((4-(ethoxymethyl)-4-phenethylpiperidin-1-yl)methyl)phenyl)-N-methoxy-N-methylacetamide] here?
A: > 10 mg/kg

Q: With `CCOCC1(CCc2ccccc2)CCN(Cc2ccc(C(=O)OC)cc2)CC1` [Compound 144, methyl 4-((4-(ethoxymethyl)-4-phenethylpiperidin-1-yl)methyl)benzoate] as the molecule, how does the ED50 read?
A: > 10 mg/kg

Q: For `CCOCC1(CCc2ccccc2)CCN(Cc2ccc(C(=O)O)cc2)CC1` [Compound 145, 4-((4-(ethoxymethyl)-4-phenethylpiperidin-1-yl)methyl)benzoic acid], which ED50 is on record?
A: > 10 mg/kg

Q: How did the ED50 turn out when `CCOCC1(CCc2ccccc2)CCN(Cc2ccc(C(C)=O)cc2)CC1` [Compound 146, 1-(4-((4-(ethoxymethyl)-4-phenethylpiperidin-1-yl)methyl)phenyl)ethanone] was run?
A: > 10 mg/kg

Q: With `CCOCC1(CCc2ccsc2)CCN(Cc2ccc(NC(C)=O)cc2)CC1` [Compound 147, N-(4-((4-(ethoxymethyl)-4-(2-(thiophen-3-yl)ethyl)piperidin-1-yl)methyl)phenyl)acetamide] as the molecule, how does the ED50 read?
A: < 10 mg/kg

Q: With `CCOCC1(CCc2ccc3ccccc3c2)CCN(Cc2ccc(NC(C)=O)cc2)CC1` [Compound 148, N-(4-((4-(ethoxymethyl)-4-(2-(naphthalen-2-yl)ethyl)piperidin-1-yl)methyl)phenyl)acetamide] as the molecule, how does the ED50 read?
A: > 10 mg/kg

Q: How did the ED50 turn out when `CCOCC1(CCc2ccccn2)CCN(Cc2ccc(NC(C)=O)cc2)CC1` [Compound 149, N-(4-((4-(ethoxymethyl)-4-(2-(pyridin-2-yl)ethyl)piperidin-1-yl)methyl)phenyl)acetamide] was run?
A: > 10 mg/kg
